Measured values taken from patent publication US20140309210A1, “INDAZOLE COMPOUNDS, COMPOSITIONS AND METHODS OF USE THEREOF” (Genentech, Inc., priority 2011, published 2014).

Molecular target: T1, purified ITK (Invitrogen PV3875) (Homo sapiens, UniProt Q08881)
T1 construct: purchased Invitrogen PV3875
T1 sequence (Q08881 1-620): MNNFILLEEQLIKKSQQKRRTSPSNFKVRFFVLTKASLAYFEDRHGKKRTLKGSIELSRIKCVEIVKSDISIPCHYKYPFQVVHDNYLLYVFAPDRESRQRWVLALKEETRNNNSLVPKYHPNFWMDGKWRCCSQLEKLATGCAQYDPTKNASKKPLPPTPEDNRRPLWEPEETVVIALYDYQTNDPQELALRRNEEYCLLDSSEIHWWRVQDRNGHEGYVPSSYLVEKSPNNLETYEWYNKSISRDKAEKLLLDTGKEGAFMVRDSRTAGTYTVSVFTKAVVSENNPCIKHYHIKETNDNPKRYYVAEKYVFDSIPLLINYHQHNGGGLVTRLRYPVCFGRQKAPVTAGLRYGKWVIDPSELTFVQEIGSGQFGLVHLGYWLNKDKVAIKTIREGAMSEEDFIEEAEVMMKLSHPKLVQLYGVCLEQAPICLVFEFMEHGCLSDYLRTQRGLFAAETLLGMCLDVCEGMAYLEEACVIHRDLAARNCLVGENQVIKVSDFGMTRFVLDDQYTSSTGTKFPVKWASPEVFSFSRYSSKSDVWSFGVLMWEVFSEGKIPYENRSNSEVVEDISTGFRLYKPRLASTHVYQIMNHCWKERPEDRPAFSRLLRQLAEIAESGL
Test: ITK peptide phosphorylation assay (Caliper LabChip or LCMS)
Type: biochemical
Procedure, shortened: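 Purified human ITK peptide phosphorylation, quenched with EDTA (50 mM final) for Caliper LabChip separation or TCA (5% v/v final) for UPLC-MS/MS MRM quantification. Ki derived via Morrison tight-binding equation, corrected for competitive inhibition using ATP concentration relative to Km,app.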

[1] = Table 2, Examples 1-140, class symbols

Row | SMILES | Ki [1] | Ki (Table 1, Examples 141-279)
1 | O=C(Nc1cnn(Cc2cccc(CNC3CC3)c2)c1)c1n[nH]c2ccccc12 [Example 98, N-(1-(3-((cyclopropylamino)methyl)benzyl)-1H-pyrazol-4-yl)-1H-indazole-3-carboxamide] | 1 to 100 nM | –
2 | O=C(Nc1cnn(Cc2ccc(CNCC(F)F)cc2)c1)c1n[nH]c2ccccc12 [Example 105, N-(1-(4-((2,2-difluoroethylamino)methyl)benzyl)-1H-pyrazol-4-yl)-1H-indazole-3-carboxamide] | 1 to 100 nM | –
3 | NC(=O)c1cccc(Cn2cc(NC(=O)c3n[nH]c4cc(-c5cn[nH]c5)ccc34)cn2)c1 [Example 29, 6-(1H-Pyrazol-4-yl)-1H-indazole-3-carboxylic acid [1-(3-carbamoyl-benzyl)-1H-pyrazol-4-yl]-amide] | 0.01 to 1 nM | –
4 | CN(CCC(c1ccccc1)n1cc(NC(=O)c2n[nH]c3ccccc23)cn1)CC(F)F (stereo not shown) [Example 273, N-[1-[3-[2,2-difluoroethyl(meth-yl)amino]-1-phenyl-propyl]pyrazol-4-yl]-1H-indazole-3-carboxamide] | – | 8.3 nM
5 | CN(C)CCC(c1cscn1)n1cc(NC(=O)c2n[nH]c3cc(-c4cn[nH]c4)ccc23)cn1 (stereo not shown) [Example 200, N-[1-[3-(dimethylamino)-1-thiazol-4-yl-propyl]pyrazol-4-yl]-6-(1H-pyrazol-4-yl)-1H-indazole-3-carboxamide] | – | 0.727 nM
6 | COc1ccc2[nH]nc(C(=O)Nc3cnn(Cc4cccc(C#N)c4)c3)c2c1 [Example 8, N-(1-(3-cyanobenzyl)-1H-pyrazol-4-yl)-5-methoxy-1H-indazole-3-carboxamide] | 1 to 100 nM | –
7 | COc1ccccc1Cn1cc(NC(=O)c2n[nH]c3ccccc23)cn1 [Example 64, N-(1-(2-methoxybenzyl)-1H-pyrazol-4-yl)-1H-indazole-3-carboxamide] | > 100 nM | –
8 | CCNCc1ccc(Cn2cc(NC(=O)c3n[nH]c4ccccc34)cn2)cc1 [Example 110, N-(1-(4-((ethylamino)methyl)benzyl)-1H-pyrazol-4-yl)-1H-indazole-3-carboxamide] | 1 to 100 nM | –
9 | O=C(Nc1cnn(Cc2ccccc2)c1)c1n[nH]c2cc(-c3cncc(F)c3)ccc12 [Example 210, N-(1-benzylpyrazol-4-yl)-6-(5-fluoro-3-pyridyl)-1H-indazole-3-carboxamide] | – | 5 nM
10 | O=C(Nc1cnn(Cc2csc(-c3ccccn3)n2)c1)c1n[nH]c2cc(-c3cn[nH]c3)ccc12 [Example 24, 6-(1H-pyrazol-4-yl)-N-[1-[[2-(2-pyridyl)thiazol-4-yl]methyl]pyrazol-4-yl]-1H-indazole-3-carboxamide] | 0.01 to 1 nM | –
11 | O=C(Nc1cnn(Cc2csc(N3CCC(O)CC3)n2)c1)c1n[nH]c2cc(-c3cn[nH]c3)ccc12 [Example 159, N-[1-[[2-(4-hydroxy-1-piperidyl)thiazol-4-yl]methyl]pyrazol-4-yl]-6-(1H-pyrazol-4-yl)-1H-indazole-3-carboxamide] | – | 3.11 nM
12 | COCCN(C)CC(c1cccnc1)n1cc(NC(=O)c2n[nH]c3cc(-c4cncc(OC)c4)ccc23)cn1 (stereo not shown) [Example 229, N-[1-[2-[2-methoxyethyl(meth-yl)amino]-1-(3-pyridyl)ethyl]py-razol-4-yl]-6-(5-methoxy-3-pyridyl)-1H-indazole-3-carboxamide] | – | 32.4 nM
13 | N#Cc1cccc(Cn2cc(NC(=O)c3n[nH]c4cc(-c5cnco5)ccc34)cn2)c1 [Example 197, N-[1-[(3-cyanophenyl)meth-yl]pyrazol-4-yl]-6-oxazol-5-yl-1H-indazole-3-carboxamide] | – | 2.04 nM
14 | CC1(Cn2cc(NC(=O)c3n[nH]c4cc(-c5cn[nH]c5)ccc34)cn2)COC1 [Example 253, N-[1-[(3-methyloxetan-3-yl)methyl]pyrazol-4-yl]-6-(1H-pyrazol-4-yl)-1H-indazole-3-carboxamide] | – | 36.7 nM
15 | CN(C)CCC(c1cscn1)n1cc(NC(=O)c2n[nH]c3cc(-c4cn[nH]c4)ccc23)cn1 (stereo not shown) [Example 201, N-[1-[3-(dimethylamino)-1-thiazol-4-yl-propyl]pyrazol-4-yl]-6-(1H-pyrazol-4-yl)-1H indazole-3-carboxamide] | – | 2.89 nM
16 | CC(C)(O)c1cccc(Cn2cc(NC(=O)c3n[nH]c4cc(-c5cn[nH]c5)ccc34)cn2)c1 [Example 47, 6-(1H-Pyrazol-4-yl)-1H-indazole-3-carboxylic acid {1-[3-(1-hydroxy-1-methyl-ethyl)-benzyl]-1H-pyrazol-4-yl}-amide] | 1 to 100 nM | –
17 | O=C(Nc1cnn(Cc2ccccc2)c1)c1n[nH]c2c(F)cccc12 [Example 230, N-(1-benzylpyrazol-4-yl)-7-fluoro-1H-indazole-3-carboxamide] | – | 726 nM
18 | COc1cncc(-c2ccc3c(C(=O)Nc4cnn(Cc5ccncc5)c4)n[nH]c3c2)c1 [Example 219, 6-(5-methoxy-3-pyridyl)-N-[1-(4-pyridylmethyl)py-razol-4-yl]-1H-indazole-3-carboxamide] | – | 23 nM
19 | O=C(Nc1cnn(Cc2c(Cl)cccc2Cl)c1)c1n[nH]c2ccccc12 [Example 61, N-(1-(2,6-dichlorobenzyl)-1H-pyrazol-4-yl)-1H-indazole-3-carboxamide] | > 100 nM | –
20 | O=C(Nc1cnn(Cc2cscn2)c1)c1n[nH]c2cc(-c3cn[nH]c3)ccc12 [Example 26, 6-(1H-Pyrazol-4-yl)-1H-indazole-3-carboxylic acid (1-thiazol-4-ylmethyl-1H-pyrazol-4-yl)-amide] | 1 to 100 nM | –
21 | CCCNCc1ccc(Cn2cc(NC(=O)c3n[nH]c4ccccc34)cn2)cc1 [Example 109, N-(1-(4-((propylamino)methyl)benzyl)-1H-pyrazol-4-yl)-1H-indazole-3-carboxamide] | 1 to 100 nM | –
22 | CN(C)CCC(c1ccccc1)n1cc(NC(=O)c2n[nH]c3ccccc23)cn1 (stereo not shown) [Example 267, N-[1-[3-(dimethylamino)-1-phenyl-propyl]pyrazol-4-yl]-1H-indazole-3-carboxamide] | – | 76.9 nM
23 | O=C(Nc1cnn(Cc2cncc(Br)c2)c1)c1n[nH]c2cc(-c3cn[nH]c3)ccc12 [Example 143, N-[1-[(5-bromo-3-pyridyl)methyl]py-razol-4-yl]-6-(1H-pyrazol-4-yl)-1H-indazole-3-carboxamide] | – | 0.614 nM
24 | CN(CCC#N)Cc1ccc(Cn2cc(NC(=O)c3n[nH]c4ccccc34)cn2)cc1 [Example 111, N-(1-(4-(((2-cyanoethyl)(methyl)amino)methyl)benzyl)-1H-pyrazol-4-yl)-1H-indazole-3-carboxamide] | 1 to 100 nM | –
25 | N#Cc1cccc(Cn2cc(NC(=O)c3n[nH]c4cc(N5CCC(O)C5)ccc34)cn2)c1 (stereo not shown) [Example 88, N-(1-(3-cyanobenzyl)-1H-pyrazol-4-yl)-6-(3-hydroxypyrrolidin-1-yl)-1H-indazole-3-carboxamide] | 1 to 100 nM | –
26 | CC(O)CNCc1ccc(Cn2cc(NC(=O)c3n[nH]c4ccccc34)cn2)cc1 (stereo not shown) [Example 106, N-(1-(4-((2-hydroxypropylamino)methyl)benzyl)-1H-pyrazol-4-yl)-1H-indazole-3-carboxamide] | 1 to 100 nM | –
27 | CN(CCC(c1ccccc1)n1cc(NC(=O)c2n[nH]c3ccccc23)cn1)S(C)(=O)=O (stereo not shown) [Example 272, N-[1-[3-[methyl(methyl-sulfonyl)amino]-1-phenyl-propyl]pyrazol-4-yl]-1H-indazole-3-carboxamide] | – | 41.6 nM
28 | CC[C@@H](c1ccccc1)n1cc(NC(=O)c2n[nH]c3cc(-c4ccncc4)ccc23)cn1 [Example 140, (S)—N-(1-(1-phenylpropyl)-1H-pyrazol-4-yl)-6-(pyridin-4-yl)-1H-indazole-3-carboxamide] | 1 to 100 nM | –
